Laboratory results: ChEMBL document CHEMBL1681670, “Synthesis and cytotoxicity of (-)-renieramycin G analogs” (Bioorg Med Chem Lett, 2011)
Converted amounts (≈) assume the structure as drawn.

Assays:
A2780 = experiment: Cytotoxicity against human A2780 cells after 3 days by MTT assay; format: functional, cell-based; settings: A2780, 72 h
MCF7 = experiment: Cytotoxicity against human MCF7 cells after 3 days by MTT assay; format: functional, cell-based; settings: MCF7, 72 h
A549 = experiment: Cytotoxicity against human A549 cells after 3 days by MTT assay; format: functional, cell-based; settings: A549, 72 h
BGC-823 = experiment: Cytotoxicity against human BGC823 cells after 3 days by MTT assay; format: functional, cell-based; settings: BGC-823, 72 h
KETR3 = experiment: Cytotoxicity against human Ketr3 cells after 3 days by MTT assay; format: functional, cell-based; settings: KETR3, 72 h
KB [1] = experiment: Cytotoxicity against human KB cells after 3 days by MTT assay; format: functional, cell-based; settings: 72 h
HeLa = experiment: Cytotoxicity against human HeLa cells after 3 days by MTT assay; format: functional, cell-based; settings: 72 h
Bel-7402 = experiment: Cytotoxicity against human Bel7402 cells after 3 days by MTT assay; format: functional, cell-based; settings: Bel-7402, 72 h
HCT-8 = experiment: Cytotoxicity against human HCT8 cells after 3 days by MTT assay; format: functional, cell-based; settings: HCT-8, 72 h
KB [2] = experiment: Cytotoxicity against human KB cells; format: functional
LoVo = experiment: Cytotoxicity against human LoVo cells; format: functional

Compound | IC50 (A2780) | IC50 (MCF7) | IC50 (A549) | IC50 (BGC-823) | IC50 (KETR3) | IC50 (KB [1]) | IC50 (HeLa) | IC50 (Bel-7402) | IC50 (HCT-8) | MIC (KB [2]) | MIC (LoVo)
COC1=C(C)C(=O)C2=C(C1=O)[C@@H]1[C@@H]3CC4=C(C(=O)C(OC)=C(C)C4=O)[C@H](COC(C)=O)N3C(=O)[C@H](C2)N1C | 3.26 µM | 4.92 µM | 4.49 µM | 4.27 µM | 4.58 µM | 2.25 µM | 2.68 µM | 3.96 µM | 5.68 µM | – | –
C/C=C/C(=O)OC[C@H]1C2=C(C[C@H]3[C@H]4C5=C(C[C@@H](C(=O)N13)N4C)C(=O)C(C)=C(OC)C5=O)C(=O)C(C)=C(OC)C2=O | 25.3 µM | 23.8 µM | 7.42 µM | 10.7 µM | 17.2 µM | 5.28 µM | 12.7 µM | 23.9 µM | 24.7 µM | – | –
C/C=C/C=C/C(=O)OC[C@H]1C2=C(C[C@H]3[C@H]4C5=C(C[C@@H](C(=O)N13)N4C)C(=O)C(C)=C(OC)C5=O)C(=O)C(C)=C(OC)C2=O | 2.44 µM | 2.54 µM | 3.2 µM | 3.5 µM | 3.86 µM | 2.03 µM | 2.43 µM | 2.13 µM | 3.47 µM | – | –
COC1=C(C)C(=O)C2=C(C1=O)[C@@H]1[C@@H]3CC4=C(C(=O)C(OC)=C(C)C4=O)[C@H](COC(=O)c4cc(OC)c(OC)c(OC)c4)N3C(=O)[C@H](C2)N1C | 2.16 µM | 2.04 µM | 2.23 µM | 1.18 µM | 2.16 µM | 1.79 µM | 1.28 µM | 2.26 µM | 2.73 µM | – | –
COC1=C(C)C(=O)C2=C(C1=O)[C@@H]1[C@@H]3CC4=C(C(=O)C(OC)=C(C)C4=O)[C@H](COC(=O)c4cc5ccccc5[nH]4)N3C(=O)[C@H](C2)N1C | 3.8 µM | 3.88 µM | 4.07 µM | 2.6 µM | 4.42 µM | 3.36 µM | 2.7 µM | 4.59 µM | 7.85 µM | – | –
COC1=C(C)C(=O)C2=C(C1=O)[C@@H]1[C@@H]3CC4=C(C(=O)C(OC)=C(C)C4=O)[C@H](COC(=O)c4cccnc4)N3C(=O)[C@H](C2)N1C | 12.2 µM | 17.4 µM | 5.94 µM | 3.38 µM | 4.62 µM | 3.16 µM | 3.39 µM | 6.47 µM | 19.4 µM | – | –
COC1=C(C)C(=O)C2=C(C1=O)[C@@H]1[C@@H]3CC4=C(C(=O)C(OC)=C(C)C4=O)[C@H](COC(=O)c4ccccc4)N3C(=O)[C@H](C2)N1C | 3.07 µM | 4.94 µM | 3.88 µM | 8.35 µM | 8.82 µM | 2.83 µM | 3.1 µM | 3.78 µM | 6.06 µM | – | –
COC1=C(C)C(=O)C2=C(C1=O)[C@@H]1[C@@H]3CC4=C(C(=O)C(OC)=C(C)C4=O)[C@H](COC(=O)c4cccs4)N3C(=O)[C@H](C2)N1C | 1.44 µM | 1.86 µM | 0.71 µM | 0.52 µM | 1.67 µM | 0.02 µM | 0.47 µM | 1.6 µM | 1.48 µM | – | –
COC1=C(C)C(=O)C2=C(C1=O)[C@@H]1[C@@H]3CC4=C(C(=O)C(OC)=C(C)C4=O)[C@H](COC(=O)c4cccc5ccccc45)N3C(=O)[C@H](C2)N1C | 15 µM | 14.1 µM | 12.5 µM | 17.5 µM | 13.8 µM | 5.41 µM | 7.58 µM | 10.9 µM | 28 µM | – | –
COC1=C(C)C(=O)C2=C(C1=O)[C@@H]1[C@@H]3CC4=C(C(=O)C(OC)=C(C)C4=O)[C@H](COC(=O)/C=C/c4ccc(OC)cc4)N3C(=O)[C@H](C2)N1C | 4.16 µM | 3.74 µM | 8.34 µM | 3.84 µM | 3.12 µM | 3.73 µM | 2.81 µM | 7.28 µM | 8.85 µM | – | –
COC1=C(C)C(=O)C2=C(C1=O)[C@@H]1[C@@H]3CC4=C(C(=O)C(OC)=C(C)C4=O)[C@H](COC(=O)/C=C/c4ccc(F)cc4)N3C(=O)[C@H](C2)N1C | 15.8 µM | 9.67 µM | 8.32 µM | 7.43 µM | 10.4 µM | 3.95 µM | 9.99 µM | 14.2 µM | 9.15 µM | – | –
COC1=C(C)C(=O)C2=C(C1=O)[C@@H]1[C@@H]3CC4=C(C(=O)C(OC)=C(C)C4=O)[C@H](COC(=O)/C=C/c4ccccc4)N3C(=O)[C@H](C2)N1C | 5 µM | 3.55 µM | 5 µM | 3.31 µM | 7.83 µM | 2.96 µM | 4.39 µM | 2.3 µM | 5 µM | – | –
COC1=C(C)C(=O)C2=C(C1=O)[C@@H]1[C@@H]3CC4=C(C(=O)C(OC)=C(C)C4=O)[C@H](COC(=O)/C=C/c4cccnc4)N3C(=O)[C@H](C2)N1C | 2.24 µM | 2.23 µM | 2.05 µM | 1.26 µM | 1.43 µM | 0.39 µM | 1.18 µM | 2.3 µM | 2.05 µM | – | –
COC1=C(C)C(=O)C2=C(C1=O)[C@@H]1[C@@H]3CC4=C(C(=O)C(OC)=C(C)C4=O)[C@H](COC(=O)/C=C/c4ccc(OC)c(OC)c4OC)N3C(=O)[C@H](C2)N1C | 16.8 µM | 10.6 µM | 10.6 µM | 9.34 µM | 9.29 µM | 8.22 µM | 5.1 µM | 14 µM | 12.4 µM | – | –
COC1=C(C)C(=O)C2=C(C1=O)[C@@H]1[C@@H]3CC4=C(C(=O)C(OC)=C(C)C4=O)[C@H](COC(=O)/C=C/c4cccc5ccccc45)N3C(=O)[C@H](C2)N1C | 9.09 µM | 3.94 µM | 5 µM | 11.7 µM | 7.89 µM | 8.67 µM | 7.42 µM | 9.81 µM | 9.31 µM | – | –
C/C=C(/C)C(=O)OC[C@H]1C2=C(C[C@H]3[C@H]4C5=C(C[C@@H](C(=O)N13)N4C)C(=O)C(C)=C(OC)C5=O)C(=O)C(C)=C(OC)C2=O [(-)-RENIERAMYCIN G] | 4.17 µM | 3.78 µM | 5 µM | 3.37 µM | 3.42 µM | 3.3 µM | 2.88 µM | 9.07 µM | 8.81 µM | 0.5 µg/mL (≈ 0.886 µM) | 1 µg/mL (≈ 1.77 µM)
